Results from patent publication US10029986B2, “Alkynyl pyridine-substituted amide compound and pesticide” (NISSAN CHEMICAL INDUSTRIES, LTD., priority 2014, dated 2018).

What was measured:
[1] = tested on: Blumeria graminis f. sp. tritici; assay: Test on the preventive effect against wheat powdery mildew; type: in vivo; settings: 168 h, test solution A 500 ppm, 5 ml per pot, wheat 1.3-leaf stage, 7 days after inoculation
Summary of the method: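 Compounds formulated as 20 wt % emulsifiable concentrates and diluted with water to 500 ppm; 5 ml per pot applied to wheat (Norin 61) at the 1.3-leaf stage. Conidia inoculated one day later in a 20° C greenhouse; lesion proportion scored after 7 days as control value, in duplicate.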

[2] = tested on: Barber pole worm (Haemonchus contortus); assay: Insecticidal test against Barber pole worm (eggs, 96 well plate); type: in vivo; settings: 96 h, test solution B 100 ppm, 10 μl per well, 25° C. dark, 4 days after treatment, read-out: efficacy (unhatched eggs and inactive larvae relative to non-treated)
Description: (§1) Compounds of the present invention were dissolved in dimethyl sulfoxide to prepare 1 wt % solutions. Then, distilled water was added to dilute the solutions to the prescribed concentration (100 ppm), and the obtained solutions were used in the following the Test Examples 9 to 12. 60 μl of a potato dextrose 1% agar medium was added to each well of a 96 well plate, and 30 μl of sterilized water containing eggs of Barber pole worm (Haemonchus contortus) (10 eggs/3 μl) was added to each well. Further, 10 μl per well of test solution B of the compounds of the present invention was added, and the plate was left at rest at 25° C. under dark conditions.

Asperaillus niger = assay: Test on the antifungal activity against Asperaillus niger; type: cell-based; settings: 48 h; test solution B 100 ppm, 10 μl per well, 96 well plate, 25° C. dark, 2 days after treatment; read-out: efficacy (flora area ratio relative to non-treated well)
Description: as §1, with “spores” for “eggs”, “Asperaillus niger” for “Barber pole worm (Haemonchus contortus)”, “spores/3” for “eggs/3”, “conditions. 2 days after treatment, the flora area ratio (%) was determined to calculate the efficacy (%) relative to the non-treated well in accordance with the following formula. Efficacy (%)=[1−(flora area ratio in treated plot/flora area ratio in non-treated well)]×100” for “conditions.”

Sclerotinia sclerotiorum = assay: Test on the preventive effect against cucumber stem rot; type: in vivo; settings: 48 h, test solution A 500 ppm, 5 ml per pot, agar block inoculation, 2 days at 20° C.
Summary of the method: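 Cucumber (Sagami Hanjiro) at cotyledon stage sprayed with 5 ml/pot of 500 ppm compound from a 20 wt % emulsifiable concentrate, air-dried, then inoculated on seed leaves with agar blocks of S. sclerotiorum grown on PDA. Kept humid at 20° C for 2 days; lesion proportion scored and control value calculated, in duplicate.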

[3] = tested on: Erysiphe polygoni (synonym: Erysiphe betae); assay: Test on the preventive effect against cucumber powdery mildew; type: in vivo; settings: 216 h, test solution A 500 ppm, 5 ml per pot sprayed, cucumber cotyledon stage, 9 days after inoculation
Summary of the method: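 Cucumber (Sagami Hanjiro) at cotyledon stage sprayed with 500 ppm compound (diluted from 20 wt% emulsifiable concentrate), air-dried, then inoculated with Erysiphe polygoni conidia. Kept 9 days at 20 °C in greenhouse; lesion area ratio scored in duplicate, control value = [1−(treated/untreated lesion ratio)]×100.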

Botrytis cinerea = assay: Test on the preventive effect against cucumber gray mold (mycelium inoculation); type: in vivo; settings: 48 h, test solution A 500 ppm, 5 ml per pot, cucumber cotyledon, agar block inoculation, 2 days at 20° C.
Summary of the method: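 Cucumber cotyledons (Sagami Hanjiro) were sprayed with 5 ml per pot of a 500 ppm dilution of a 20 wt % emulsifiable concentrate. Next day, mycelial agar plugs of Botrytis cinerea were placed on cotyledons, held humid at 20° C for 2 days. Lesion proportion gave the control value; duplicate.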

Question: What does the source list for `CC(C)(CNC(=O)c1cccnc1C(F)F)c1ncc(C#CC2CC2)cc1Cl` [3-007, N-[2-[3-chloro-5-(cyclopropylethynyl)pyridin-2-yl]-2-methylpropyl]-2-(difluoromethyl)nicotinamide]?
Answer: pest or weed control at 500 µg/mL [1]: ≥ 70%; pest or weed control at 100 µg/mL [2]: ≥ 50%; inhibition of growth at 100 µg/mL (Asperaillus niger): ≥ 50%; pest or weed control at 500 µg/mL (Sclerotinia sclerotiorum): ≥ 70%; pest or weed control at 500 µg/mL [3]: ≥ 70%; pest or weed control at 500 µg/mL (Botrytis cinerea): ≥ 70%

Question: How did the pest or weed control at 500 µg/mL [1] turn out when `CC(C)(CNC(=O)c1ccccc1C(F)(F)F)c1ncc(C#CC2CC2)cc1Cl` [1-008] was run?
Answer: Its pest or weed control at 500 µg/mL is at least 70%.

Question: What about the pest or weed control at 100 µg/mL [2] of the same compound?
Answer: The pest or weed control at 100 µg/mL was at least 50%.

Question: And the inhibition of growth at 100 µg/mL (Asperaillus niger)?
Answer: The inhibition of growth at 100 µg/mL was at least 50%.

Question: And the pest or weed control at 500 µg/mL (Sclerotinia sclerotiorum)?
Answer: The pest or weed control at 500 µg/mL was at least 70%.

Question: What about the pest or weed control at 500 µg/mL [3] of the same compound?
Answer: Its pest or weed control at 500 µg/mL is at least 70%.

Question: And the pest or weed control at 500 µg/mL (Botrytis cinerea)?
Answer: The pest or weed control at 500 µg/mL was at least 70%.

Question: Which results are given for `COC(c1ncc(C#CC2CC2)cc1Cl)C(C)NC(=O)c1cccnc1C(F)F` (stereo not drawn) [3-021]?
Answer: pest or weed control at 500 µg/mL [1]: ≥ 70%; pest or weed control at 100 µg/mL [2]: ≥ 50%; inhibition of growth at 100 µg/mL (Asperaillus niger): ≥ 50%; pest or weed control at 500 µg/mL (Sclerotinia sclerotiorum): ≥ 70%; pest or weed control at 500 µg/mL [3]: ≥ 70%; pest or weed control at 500 µg/mL (Botrytis cinerea): ≥ 70%

Question: Which results are given for `COC(c1ncc(C#CC2CC2)cc1Cl)C(C)NC(=O)c1cn(C)nc1C(F)F` (stereo not drawn) [8-028, N-[2-[3-chloro-5-(cyclopropylethynyl)pyridin-2-yl]-2-methoxy-1-methylethyl]-3-difluoromethyl-1-methyl-1H-pyrazole-4-carboxamide]?
Answer: pest or weed control at 500 µg/mL [1]: ≥ 70%; pest or weed control at 100 µg/mL [2]: ≥ 50%; inhibition of growth at 100 µg/mL (Asperaillus niger): ≥ 50%; pest or weed control at 500 µg/mL (Sclerotinia sclerotiorum): ≥ 70%; pest or weed control at 500 µg/mL [3]: ≥ 70%; pest or weed control at 500 µg/mL (Botrytis cinerea): ≥ 70%

Question: With `CSC(CNC(=O)c1cccnc1C(F)F)c1ncc(C#CC2CC2)cc1Cl` (stereo not drawn) [3-020] as the compound, how does the pest or weed control at 500 µg/mL [1] read?
Answer: Its pest or weed control at 500 µg/mL is at least 70%.

Question: And the pest or weed control at 100 µg/mL [2]?
Answer: Its pest or weed control at 100 µg/mL is at least 50%.

Question: And the inhibition of growth at 100 µg/mL (Asperaillus niger)?
Answer: The inhibition of growth at 100 µg/mL was at least 50%.

Question: And the pest or weed control at 500 µg/mL (Sclerotinia sclerotiorum)?
Answer: Its pest or weed control at 500 µg/mL is at least 70%.

Question: And the pest or weed control at 500 µg/mL [3]?
Answer: Its pest or weed control at 500 µg/mL is at least 70%.

Question: And the pest or weed control at 500 µg/mL (Botrytis cinerea)?
Answer: Its pest or weed control at 500 µg/mL is at least 70%.

Question: With `COC(c1ncc(C#CC2CC2)cc1Cl)C(C)NC(=O)c1ccccc1C(F)(F)F` (stereo not drawn) [1-024] as the compound, how does the pest or weed control at 500 µg/mL [1] read?
Answer: Its pest or weed control at 500 µg/mL is at least 70%.

Question: What about the pest or weed control at 100 µg/mL [2] of the same compound?
Answer: Its pest or weed control at 100 µg/mL is at least 50%.

Question: What about the inhibition of growth at 100 µg/mL (Asperaillus niger) of the same compound?
Answer: The inhibition of growth at 100 µg/mL was at least 50%.

Question: And the pest or weed control at 500 µg/mL (Sclerotinia sclerotiorum)?
Answer: Its pest or weed control at 500 µg/mL is at least 70%.

Question: And the pest or weed control at 500 µg/mL [3]?
Answer: Its pest or weed control at 500 µg/mL is at least 70%.

Question: What about the pest or weed control at 500 µg/mL (Botrytis cinerea) of the same compound?
Answer: Its pest or weed control at 500 µg/mL is at least 70%.

Question: What does the source list for `Cn1cc(C(=O)NCC(C)(C)c2ncc(C#CC3CC3)cc2Cl)c(C(F)F)n1` [8-008]?
Answer: pest or weed control at 500 µg/mL [1]: ≥ 70%; pest or weed control at 100 µg/mL [2]: ≥ 50%; inhibition of growth at 100 µg/mL (Asperaillus niger): ≥ 50%; pest or weed control at 500 µg/mL (Sclerotinia sclerotiorum): ≥ 70%; pest or weed control at 500 µg/mL [3]: ≥ 70%; pest or weed control at 500 µg/mL (Botrytis cinerea): ≥ 70%

Question: Which results are given for `COC(c1ncc(C#CC2CC2)cc1Cl)C(C)NC(=O)c1sc(C)nc1C(F)F` (stereo not drawn) [9-006a]?
Answer: pest or weed control at 500 µg/mL [1]: ≥ 70%; pest or weed control at 100 µg/mL [2]: ≥ 50%; inhibition of growth at 100 µg/mL (Asperaillus niger): ≥ 50%; pest or weed control at 500 µg/mL (Sclerotinia sclerotiorum): ≥ 70%; pest or weed control at 500 µg/mL [3]: ≥ 70%; pest or weed control at 500 µg/mL (Botrytis cinerea): ≥ 70%

Question: What does the source list for `O=C(NCC(c1ncc(C#CC2CC2)cc1Cl)C1CC1)c1cccnc1C(F)F` (stereo not drawn) [3-008]?
Answer: pest or weed control at 500 µg/mL [1]: ≥ 70%; pest or weed control at 100 µg/mL [2]: ≥ 50%; inhibition of growth at 100 µg/mL (Asperaillus niger): ≥ 50%; pest or weed control at 500 µg/mL (Sclerotinia sclerotiorum): ≥ 70%; pest or weed control at 500 µg/mL [3]: ≥ 70%; pest or weed control at 500 µg/mL (Botrytis cinerea): ≥ 70%

Question: How did the pest or weed control at 500 µg/mL [1] turn out when `Cn1cc(C(=O)NCC(F)(F)c2ncc(C#CC3CC3)cc2Cl)c(C(F)F)n1` [8-003] was run?
Answer: Its pest or weed control at 500 µg/mL is at least 70%.

Question: What about the pest or weed control at 100 µg/mL [2] of the same compound?
Answer: Its pest or weed control at 100 µg/mL is at least 50%.

Question: What about the inhibition of growth at 100 µg/mL (Asperaillus niger) of the same compound?
Answer: Its inhibition of growth at 100 µg/mL is at least 50%.

Question: What about the pest or weed control at 500 µg/mL (Sclerotinia sclerotiorum) of the same compound?
Answer: The pest or weed control at 500 µg/mL was at least 70%.

Question: What about the pest or weed control at 500 µg/mL [3] of the same compound?
Answer: Its pest or weed control at 500 µg/mL is at least 70%.

Question: What about the pest or weed control at 500 µg/mL (Botrytis cinerea) of the same compound?
Answer: The pest or weed control at 500 µg/mL was at least 70%.

Question: How did the pest or weed control at 500 µg/mL [1] turn out when `C=C(CNC(=O)c1cn(C)nc1C(F)F)c1ncc(C#CC2CC2)cc1Cl` [8-011, N-[2-[3-chloro-5-(cyclopropylethynyl)pyridin-2-yl]-2-propenyl]-3-difluoromethyl-1-methyl-1H-pyrazole-4-carboxamide] was run?
Answer: Its pest or weed control at 500 µg/mL is at least 70%.

Question: And the pest or weed control at 100 µg/mL [2]?
Answer: The pest or weed control at 100 µg/mL was at least 50%.

Question: And the inhibition of growth at 100 µg/mL (Asperaillus niger)?
Answer: Its inhibition of growth at 100 µg/mL is at least 50%.

Question: And the pest or weed control at 500 µg/mL (Sclerotinia sclerotiorum)?
Answer: The pest or weed control at 500 µg/mL was at least 70%.

Question: And the pest or weed control at 500 µg/mL [3]?
Answer: Its pest or weed control at 500 µg/mL is at least 70%.

Question: And the pest or weed control at 500 µg/mL (Botrytis cinerea)?
Answer: Its pest or weed control at 500 µg/mL is at least 70%.
